# In patent US20240124389A1, “COMPOUND OR SALT THEREOF, LIPID PARTICLES, AND PHARMACEUTICAL COMPOSITION” (FUJIFILM Corporation, priority 2021, published 2024):
# What was measured:
# [1] = Particle size of EPO mRNA-encapsulating lipid particles; type: physicochemical
# Method: (§1) The compounds described in Table 1, the neutral lipid, cholesterol (product name: Cholesterol HP; NIPPON FINE CHEMICAL CO., LTD.), and 1,2-dimyristoyl-rac-glycero-3-(methylpolyoxyethylene 2000) (hereinafter, called DMG-PEG2000) (product name: SUNBRIGHT® GM-020; NOF corporation) were dissolved in ethanol at a molar ratio in Table 1 such that the total lipid concentration became 20 mmol/L, thereby obtaining an oil phase.
# (§2) As the neutral lipid, 1,2-distearoyl-sn-glycero-3-phosphocholine (product name: COATSOME® MC-8080; NOF corporation) (hereinafter, DSPC), or L-α-dioleoyl phosphatidylethanolamine (Hereinafter, DOPE) (product name: COATSOME® ME-8181; NOF corporation), or 1,2-dioleoyl-sn-glycero-3-phosphocholine (hereinafter, DOPC) (product name: COATSOME® MC-8181; NOF corporation) was used.
# (§3) EPO mRNA (product name: CleanCap EPO mRNA (5moU); TriLink) was diluted with 50 mmol/L citrate buffer having a pH 4 such that the weight ratio of total lipid concentration to mRNA concentration is about 16:1 to 64:1, thereby obtaining a water phase. Then, the water phase and the oil phase were mixed together using NanoAssemblr (Precision NanoSystems) such that the volume ratio of water phase:oil phase was 3:1, and the mixed solution was 1.5-fold diluted with phosphate buffered saline (PBS), thereby obtaining a dispersion liquid of mRNA lipid particles. The dispersion liquid was dialyzed with a 10% aqueous sucrose solution using a dialysis cassette (Slide-A-Lyzer G2, MWCO: 10 kD, Thermo Fisher Scientific) to remove ethanol, thereby obtaining EPO mRNA-encapsulating lipid particles.
# (§4) The particle size of the mRNA-encapsulating lipid particles was measured by 10-fold diluting the dispersion liquid of lipid particle with phosphate buffered saline (PBS) using Zeta-potential & Particle size Analyzer ELS-Z2 (Otsuka Electronics Co., Ltd.).
# [2] = system: EPO mRNA; experiment: mRNA encapsulation rate of EPO mRNA-encapsulating lipid particles; type: physicochemical
# Method: as §1, §2, §3
# (§5) 15 to 30 μL of a 3 mol/L aqueous sodium acetate solution and 4.5 to 9 μL of glycogen were added to 30 to 60 μL of the lipid particles retaining mRNA, and 0.75 to 1.5 mL of ethanol was added thereto, so that only the nucleic acids were precipitated while the lipid was dissolved. Then, the supernatant was removed by centrifugation. The precipitates were air-dried for 15 minutes or longer, then water was added thereto to redissolve the precipitates, and the concentration thereof was measured using Nanodrop NF1000 (Thermo Fisher Scientific), thereby quantifying the total mRNA concentration.
# (§6) The mRNA concentration was quantified using a Quant-iT RiboGreen RNA Assay Kit (Thermo Fisher Scientific) according to the protocol. First, a 20×TE buffer included in the above-described kit was diluted with water, thereby obtaining a 1×TE buffer. TE represents Tris/EDTA (ethylenediaminetetraacetic acid). In order to quantify only mRNA in the outer water phase, the dispersion liquid of lipid particles retaining mRNA was 10,000-fold diluted with the 1×TE buffer. 100 μL of the 10,000-fold diluted dispersion liquid of lipid particles was put into a 96-well plate, then 100 μL of a RiboGreen reagent (reagent included in the Quanti-iT Ribogreen RNA Assay Kit described above) 2,000-fold diluted with the 1×TE buffer was added to a sample, and fluorescence (excitation wavelength: 485 nm, fluorescence wavelength: 535 nm) was measured using a plate reader Infinite F200 (TECAN), thereby quantifying the mRNA concentration in the outer water phase.
# (§7) By using the quantification results of the total mRNA concentration and the mRNA concentration in the outer water phase that were obtained through the above steps, the mRNA encapsulation rate of the mRNA lipid particles was calculated according to the following Equation.
# (§8) mRNA encapsulation rate (%)=(total mRNA concentration-mRNA concentration in outer water phase)/total mRNA concentration×100
# [3] = Particle size of FLuc mRNA-encapsulating lipid particles; type: physicochemical; conditions: aminolipid 45 / DOPC 10 / cholesterol 43.5 / DMG-PEG2000 1.5 mol %, lipid/nucleic acid 32 wt/wt
# [4] = system: human EPO; experiment: Measurement of EPO enzyme activity (EPO protein in blood plasma of mice after intravenous administration of EPO mRNA lipid particles); type: in vivo; conditions: C57BL/6J mice, tail-vein i.v., mRNA 0.1 mg/kg, plasma 20 to 24 hours
# Method: as §1, §2, §3
# The dispersion liquid of mRNA lipid particles prepared in above-described <Preparation of EPO mRNA-encapsulating lipid particles> was tail-vein intravenously administered to C57BL/6J mice at a mRNA dosage of 0.1 mg/kg. 20 to 24 hours after the administration, blood was collected from the caudal vena cava, thereby obtaining blood plasma. The human EPO enzyme activity was quantified by using the obtained blood plasma and ab119522 Erythropoietin (EPO) Human Elisa Kit (Abcam.plc). The quantitative value is described as a relative amount of EPO protein in a case where Comparative Example 1 is 1.
# [5] = system: FLuc mRNA; experiment: mRNA encapsulation rate of FLuc mRNA-encapsulating lipid particles; type: physicochemical; conditions: lipid/nucleic acid 32 wt/wt
# [6] = system: FLuc mRNA; experiment: as above; type: physicochemical; conditions: aminolipid 45 / DOPE 10 / cholesterol 43.5 / DMG-PEG2000 1.5 mol %, lipid/nucleic acid 32 wt/wt
# Method: (§9) The compounds described in Table 2, the neutral lipid, cholesterol (product name: Cholesterol HP; NTPPON FINE CHEMICAL CO., LTD.), and 1,2-dimyristoyl-rac-glycero-3-(methylpolyoxyethylene 2000) (hereinafter, called DMG-PEG2000) were dissolved in ethanol at a molar ratio in Table 2 such that the total lipid concentration became 20 mmol/L, thereby obtaining an oil phase.
# (§10) As the neutral lipid, 1,2-distearoyl-sn-glycero-3-phosphocholine (product name: COATSOME® MC-8080; NOF corporation) was used in a case of Comparative Example 1, and L-α-dioleoylphosphatidylethanolamine (product name: COATSOME® MC-8181; NOF corporation) was used in a case other than Comparative Example 1.
# as §3, with “FLuc” for “EPO”, “(5 moU);” for “(5moU);”, “19:1” for “16:1”, “64:1,” for “64:1, thereby”
# as §5, §6, §7, §8
# [7] = Particle size of FLuc mRNA-encapsulating lipid particles; type: physicochemical; conditions: lipid/nucleic acid 32 wt/wt
# Method: as §9, §10
# as §3, with “FLuc” for “EPO”, “(5 moU);” for “(5moU);”, “19:1” for “16:1”, “64:1,” for “64:1, thereby”
# as §4
# [8] = aminolipid 45 / DOPC 10 / cholesterol 43.5 / DMG-PEG2000 1.5 mol %, lipid/nucleic acid 32 wt/wt
# [9] = aminolipid 45 / DOPE 10 / cholesterol 43.5 / DMG-PEG2000 1.5 mol %, lipid/nucleic acid 32 wt/wt
# [10] = aminolipid 45 / no neutral lipid / cholesterol 53.5 / DMG-PEG2000 1.5 mol %, lipid/nucleic acid 32 wt/wt
# [11] = aminolipid 45 / neutral lipid — (composition printed 10) / cholesterol 53.5 / DMG-PEG2000 1.5 mol %
# [12] = aminolipid 45 / DOPE 10 / cholesterol 43.5 / DMG-PEG2000 1.5 mol %
# [13] = aminolipid 45 / DOPE 10 / cholesterol 43.5 / DMG-PEG2000 1.5 mol %, lipid/nucleic acid 64 wt/wt
Structure (SMILES),"Particle size [1, 8] [nm]","Particle size [1, 9] [nm]","Particle size [1, 10] [nm]","Nucleic acid encapsulation rate [2, 8] [%]","Nucleic acid encapsulation rate [2, 9] [%]","Nucleic acid encapsulation rate [2, 10] [%]",Particle size [3] [nm],"Relative amount of EPO protein (with respect to Comparative Example 1) [4, 8]","Relative amount of EPO protein (with respect to Comparative Example 1) [4, 9]","Relative amount of EPO protein (with respect to Comparative Example 1) [4, 10]",Nucleic acid encapsulation rate ([5]; aminolipid 45 / DOPC 10 / cholesterol 43.5 / DMG-PEG2000 1.5 mol %) [%],"Nucleic acid encapsulation rate [5, 11] [%]",Nucleic acid encapsulation rate [6] [%],"Particle size [7, 12] [nm]","Particle size [7, 11] [nm]","Particle size [1, 13] [nm]","Nucleic acid encapsulation rate [2, 13] [%]","Relative amount of EPO protein (with respect to Comparative Example 1) [4, 13]"
"CCCCCC(CCCCC)COC(=O)CCCC(CCC)OC(=O)OCCN(CCCN(CC)CC)CCOC(=O)OC(CCC)CCCC(=O)OCC(CCCCC)CCCCC (centres unmarked) [Example 28, Bis(2-pentylheptyl) 11-(3-(diethylamino)propyl)-7,15-dioxo-5,17-dipropyl-6,8,14,16-tetraoxa-11-azahenicosanedi oate]",82.1,115.7,155.2,99.2,98.8,99.2,104.3,3.54,1.23,1.47,99.1,99.1,100.0,82.9,164.6,–,–,–
"CCCCCCSCCOC(=O)CCCC(CCCC(=O)OCCSCCCCCC)OC(=O)OCCN(CCOC(=O)OC(CCCC(=O)OCCSCCCCCC)CCCC(=O)OCCSCCCCCC)CCN(CC)CC [Example 43, Bis(2-(hexylthio)ethyl) 11-(2-(diethylamino)ethyl)-5,17-bis(4-(2-(hexylthio)ethoxy)-4-oxobutyl)-7,15-dioxo-6,8,14,16-tetraoxa-11-azahenicosanedioate]",–,–,–,–,–,–,–,–,–,–,–,–,100.0,144,–,155.0,95.7,3.12
